Assay results published in patent US8815503B2, “Compositions and methods for immunostimulatory RNA oligonucleotides” (Rheinische Friedrich-Wilhelms-Universitat Bonn, priority 2005, dated 2014).

System: PBMC
Experiment: 193 ssRNA 4mer-motif library screen: IL-12 (IL-12p40) production in PBMC of six donors, poly-L-Arg complexation, ELISA at 44 hours, IL-12 index and adjusted IL-12 index
Format: cell-based, human
Set-up: key to Adjusted IL-12 index Mean: IL-12 index (ratio to 9.2sense) minus donor mean, averaged over 6 donors
Details: for Adjusted IL-12 index Mean: 193 ssRNA oligonucleotide library, data from six individual donors summarized, ascending order
Summary of the method: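 Human PBMC from six healthy donors were stimulated in duplicate with poly-L-arginine-complexed ssRNA oligonucleotides, and IL-12p40 in supernatant was measured by ELISA at 44 h. Each value was divided by the 9.2sense control on the same plate (IL-12 index), then the donor's mean index was subtracted; adjusted indices are means ± SEM over donors.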

Sequence | Adjusted IL-12 index Mean | other results
AAAAAAAGUACAAAAAAAA (RNA, backbone not given here) [ANP-Oligo 134] | 0.42 | 
AAAAAAAGUAGAAAAAAAA (RNA, backbone not given here) [ANP-Oligo 135] | 0.67 | 
AAAAAAAGUAUAAAAAAAA (RNA, backbone not given here) [ANP-Oligo 136] | 1.04 | 
AAAAAAAGUCCAAAAAAAA (RNA, backbone not given here) [ANP-Oligo 137] | −0.27 | 
AAAAAAAGUCGAAAAAAAA (RNA, backbone not given here) [ANP-Oligo 138] | 0.02 | 
AAAAAAAGUCUAAAAAAAA (RNA, backbone not given here) [ANP-Oligo 139] | 0.05 | 
AAAAAAAGUGCAAAAAAAA (RNA, backbone not given here) [ANP-Oligo 140] | 0.99 | 
AAAAAAAGUGGAAAAAAAA (RNA, backbone not given here) [ANP-Oligo 141] | 0.5 | 
AAAAAAAGUGUAAAAAAAA (RNA, backbone not given here) [ANP-Oligo 142] | 1.23 | 
AAAAAAAGUUCAAAAAAAA (RNA, backbone not given here) [ANP-Oligo 143] | 0.56 | 
AAAAAAAGUUGAAAAAAAA (RNA, backbone not given here) [ANP-Oligo 144] | 4.39 | 
AAAAAAAGUUUAAAAAAAA (RNA, backbone not given here) [ANP-Oligo 145] | 1.32 | 
AAAAAAAUAACAAAAAAAA (RNA, backbone not given here) [ANP-Oligo 146] | −0.16 | 
AAAAAAAUAAGAAAAAAAA (RNA, backbone not given here) [ANP-Oligo 147] | 0.27 | 
AAAAAAAUAAUAAAAAAAA (RNA, backbone not given here) [ANP-Oligo 148] | 0.7 | 
AAAAAAAUACCAAAAAAAA (RNA, backbone not given here) [ANP-Oligo 149] | 0.27 | 
AAAAAAAUACGAAAAAAAA (RNA, backbone not given here) [ANP-Oligo 150] | −0.3 | 
AAAAAAAUACUAAAAAAAA (RNA, backbone not given here) [ANP-Oligo 151] | 0.3 | 
AAAAAAAUAGCAAAAAAAA (RNA, backbone not given here) [ANP-Oligo 152] | 0.35 | 
AAAAAAAUAGGAAAAAAAA (RNA, backbone not given here) [ANP-Oligo 153] | 0.42 | 

Sequence | Adjusted IL-12 index Mean | other results
AAAAAAAUAGUAAAAAAAA (RNA, backbone not given here) [ANP-Oligo 154] | 1.57 | adjusted IL-12 index (summarized from all six donors): 1.57
AAAAAAAUAUCAAAAAAAA (RNA, backbone not given here) [ANP-Oligo 155] | 0.33 | 
AAAAAAAUAUGAAAAAAAA (RNA, backbone not given here) [ANP-Oligo 156] | 0.27 | 
AAAAAAAUAUUAAAAAAAA (RNA, backbone not given here) [ANP-Oligo 157] | 0.46 | 
AAAAAAAUCACAAAAAAAA (RNA, backbone not given here) [ANP-Oligo 158] | −0.39 | 
AAAAAAAUCAGAAAAAAAA (RNA, backbone not given here) [ANP-Oligo 159] | −0.28 | 
AAAAAAAUCAUAAAAAAAA (RNA, backbone not given here) [ANP-Oligo 160] | 0.1 | 
AAAAAAAUCCCAAAAAAAA (RNA, backbone not given here) [ANP-Oligo 161] | −0.42 | 
AAAAAAAUCCGAAAAAAAA (RNA, backbone not given here) [ANP-Oligo 162] | −0.5 | 
AAAAAAAUCCUAAAAAAAA (RNA, backbone not given here) [ANP-Oligo 163] | −0.15 | 
AAAAAAAUCGCAAAAAAAA (RNA, backbone not given here) [ANP-Oligo 164] | −0.1 | 
AAAAAAAUCGGAAAAAAAA (RNA, backbone not given here) [ANP-Oligo 165] | −0.26 | 
AAAAAAAUCGUAAAAAAAA (RNA, backbone not given here) [ANP-Oligo 166] | 4.42 | adjusted IL-12 index (summarized from all six donors): 4.42
AAAAAAAUCUCAAAAAAAA (RNA, backbone not given here) [ANP-Oligo 167] | 0.37 | 
AAAAAAAUCUGAAAAAAAA (RNA, backbone not given here) [ANP-Oligo 168] | 0.45 | 
AAAAAAAUCUUAAAAAAAA (RNA, backbone not given here) [ANP-Oligo 169] | 0.67 | 
AAAAAAAUGACAAAAAAAA (RNA, backbone not given here) [ANP-Oligo 170] | 0.86 | 
AAAAAAAUGAGAAAAAAAA (RNA, backbone not given here) [ANP-Oligo 171] | 0.22 | 
AAAAAAAUGAUAAAAAAAA (RNA, backbone not given here) [ANP-Oligo 172] | 1.92 | 
AAAAAAAUGCCAAAAAAAA (RNA, backbone not given here) [ANP-Oligo 173] | 1.22 | 

Sequence | Adjusted IL-12 index Mean | other results
AAAAAAAUGCGAAAAAAAA (RNA, backbone not given here) [ANP-Oligo 174] | 0.28 | 
AAAAAAAUGCUAAAAAAAA (chemistry not given here) [ANP-Oligo 175] | 1.85 | adjusted IL-12 index (donor 3, IL-12 index minus mean of all IL-12 indices of the donor): 1.46; IL-12 in supernatant, mean of the two raw values of the duplicates (donor 3, poly-L-Arg complexed, 44 hours): 1725 pg/mL; IL-12 index (donor 3, ratio to RNA9.2sense): 1.90
AAAAAAAUGGCAAAAAAAA (RNA, backbone not given here) [ANP-Oligo 176] | 2.41 | 
AAAAAAAUGGGAAAAAAAA (RNA, backbone not given here) [ANP-Oligo 177] | −0.35 | 
AAAAAAAUGGUAAAAAAAA (RNA, backbone not given here) [ANP-Oligo 178] | 3.26 | adjusted IL-12 index (summarized from all six donors): 3.26
AAAAAAAUGUCAAAAAAAA (RNA, backbone not given here) [ANP-Oligo 179] | 0.9 | 
AAAAAAAUGUGAAAAAAAA (RNA, backbone not given here) [ANP-Oligo 180] | 1.31 | 
AAAAAAAUGUUAAAAAAAA (RNA, backbone not given here) [ANP-Oligo 181] | 0.79 | 
AAAAAAAUUACAAAAAAAA (RNA, backbone not given here) [ANP-Oligo 182] | 0.11 | 
AAAAAAAUUAGAAAAAAAA (RNA, backbone not given here) [ANP-Oligo 183] | 0.27 | 
AAAAAAAUUAUAAAAAAAA (RNA, backbone not given here) [ANP-Oligo 184] | 0.56 | 
AAAAAAAUUCCAAAAAAAA (RNA, backbone not given here) [ANP-Oligo 185] | −0.08 | 
AAAAAAAUUCGAAAAAAAA (RNA, backbone not given here) [ANP-Oligo 186] | −0.08 | 
AAAAAAAUUCUAAAAAAAA (RNA, backbone not given here) [ANP-Oligo 187] | 0.18 | 
AAAAAAAUUGCAAAAAAAA (RNA, backbone not given here) [ANP-Oligo 188] | 1.62 | 
AAAAAAAUUGGAAAAAAAA (RNA, backbone not given here) [ANP-Oligo 189] | 0.66 | 
AAAAAAAUUGUAAAAAAAA (RNA, backbone not given here) [ANP-Oligo 190] | 1.6 | adjusted IL-12 index (summarized from all six donors): 1.6
AAAAAAAUUUCAAAAAAAA (RNA, backbone not given here) [ANP-Oligo 191] | 0.27 | 
AAAAAAAUUUGAAAAAAAA (RNA, backbone not given here) [ANP-Oligo 192] | 0.65 | 
AAAAAAAUUUUAAAAAAAA (RNA, backbone not given here) [ANP-Oligo 193] | 0.62 | 
